# According to patent US20150157021A1, “NEW ANTIFUNGAL COMPOSITIONS” (DSM IP ASSETS B.V., priority 2012, published 2015):
# Assays:
# Botrytis cinerea = test: Treatment of wounded strawberries inoculated with Botrytis cinerea (Examples 5, 6); format: in vivo; conditions: for Observed antifungal activity O (%): strawberries, 20° C.
# Experimental: Twelve fresh, organic strawberries were used per treatment. Each strawberry was wounded with a 0.5 mm long cut and each wound was inoculated with 10 μl of a Botrytis cinerea suspension containing 1×10^5 of spores/ml. After a 3-hour incubation period at 20° C., each strawberry was dipped individually for 1 minute in a freshly prepared aqueous antifungal composition comprising either 500 ppm natamycin (DSM Food Specialties, Delft, The Netherlands), 500 ppm fenhexamid or both. Each antifungal composition also comprised 3.2% (w/w) beeswax, 0.8% (w/w) glycerol, 0.7% (w/w) polyoxyethylene sorbitan monostearate (Tween 60), 0.1% (w/w) polyoxyethylene sorbitan monooleate (Tween 80), 0.05% (w/w) methylhydroxyethyl-cellulose (MHEC), 0.03% (w/w) anti-foaming agent, 0.02% (w/w) xanthan gum, 0.02% (w/w) citric acid, 0.01% (w/w) lactic acid and 0.01% potassium sorbate. A composition without natamycin or fenhexamid was used as control. […] The treated strawberries were incubated in a closed box in the dark at 20° C. for 11 days.
# The expected antifungal activity (E in %) of the combined antifungal composition comprising both active ingredients was calculated according to the Colby equation (Colby, 1967): […]
# wherein X and Y are the observed antifungal activities (in %) of the individual active ingredients X and Y, respectively.
# The experiment was conducted as described in Example 5, except for the fact that each wounded and inoculated strawberry was dipped individually for 1 minute in a freshly prepared aqueous antifungal composition comprising either 250 ppm natamycin (DSM Food Specialties, Delft, The Netherlands), 250 ppm fenhexamid or both. The treated strawberries were incubated in a closed box in the dark at 20° C. for 10 days. During incubation, the treated strawberries were assessed on mould growth according to the two methods described in Example 5.
# Penicillium italicum = test: Treatment of wounded oranges inoculated with Penicillium italicum (Examples 7, 8); format: in vivo; conditions: 20° C., 250 ppm natamycin, 400 ppm boscalid or both
# Experimental: Ten fresh, organic oranges were used per treatment. Each orange was soaked in a 180 ppm hypochlorite solution for 10 minutes, then rinsed thoroughly with fresh tap water and dried. The peel of each disinfected orange was wounded once using a cork borer according to the method described by de Lapeyre de Bellaire and Dubois (1987). Subsequently, each wound was inoculated with 10 μl of a Penicillium italicum suspension containing 1×10^5 of spores/ml. After incubation for 3 hours at 20° C., each wound and the orange peel area of 1 cm around the wound was treated with in total 150 μl of a freshly prepared aqueous antifungal composition comprising either 500 ppm natamycin (DSM Food Specialties, Delft, The Netherlands), 800 ppm boscalid or both. Each antifungal composition also comprised 3.2% (w/w) beeswax, 0.8% (w/w) glycerol, 0.7% (w/w) polyoxyethylene sorbitan monostearate (Tween 60), 0.2% (w/w) polyoxyethylene sorbitan monooleate (Tween 80), 0.05% (w/w) methylhydroxyethyl-cellulose (MHEC), 0.03% (w/w) anti-foaming agent, 0.02% (w/w) xanthan gum, 0.02% (w/w) citric acid, 0.01% (w/w) lactic acid and 0.01% potassium sorbate. A composition without natamycin or boscalid was used as control. […] The treated oranges were incubated in a closed box in the dark at 20° C. and assessed on mould growth during a 17-day incubation period. The antifungal activity (in %) of the individual and combined active ingredients was determined by calculating the reduction in mould growth observed on the oranges treated with the antifungal composition in comparison to the mould growth on the oranges treated with the control composition according to the Colby method (Colby, 1967) described in Example 5.
# The experiment was conducted as described in Example 7, except for the fact that each wounded and inoculated orange was treated with 150 μl of a freshly prepared aqueous antifungal composition comprising either 250 ppm natamycin (DSM Food Specialties, Delft, The Netherlands), 400 ppm boscalid or both. The treated oranges were incubated in a closed box in the dark at 20° C. and assessed on mould growth during a 18-day incubation period. During incubation, the treated oranges were assessed on mould growth according to the method described in Example 7.
structure (smiles),measurement,setting,value
"C[C@@H]1C/C=C/C=C/C=C/C=C/[C@H](O[C@@H]2O[C@H](C)[C@@H](O)[C@H](N)[C@@H]2O)C[C@@H]2O[C@](O)(C[C@@H](O)C[C@H]3O[C@@H]3/C=C/C(=O)O1)C[C@H](O)[C@H]2C(=O)O [Natamycin, natamycin]",Number of moulded strawberries/total number of 12 strawberries,"Botrytis cinerea; Day 5, 20° C., 250 ppm natamycin, 250 ppm fenhexamid or both",9/12
same,Number of moulded strawberries/total number of 12 strawberries,"Botrytis cinerea; Day 5, 20° C., 250 ppm natamycin, 250 ppm fenhexamid or both, listed as natamycin",9
same,Number of moulded strawberries/total number of 12 strawberries,"Botrytis cinerea; Day 6-7, 20° C., 250 ppm natamycin, 250 ppm fenhexamid or both",11/12
same,Number of moulded strawberries/total number of 12 strawberries,"Botrytis cinerea; Day 6-7, 20° C., 250 ppm natamycin, 250 ppm fenhexamid or both, listed as natamycin",11
same,Number of moulded strawberries/total number of 12 strawberries,"Botrytis cinerea; Day 7-8, 20° C., 500 ppm natamycin, 500 ppm fenhexamid or both",12/12
same,Number of moulded strawberries/total number of 12 strawberries,"Botrytis cinerea; Day 8, 20° C., 250 ppm natamycin, 250 ppm fenhexamid or both",11/12
same,Number of moulded strawberries/total number of 12 strawberries,"Botrytis cinerea; Day 8, 20° C., 250 ppm natamycin, 250 ppm fenhexamid or both, listed as natamycin",11
same,Number of moulded strawberries/total number of 12 strawberries,"Botrytis cinerea; Day 9, 20° C., 500 ppm natamycin, 500 ppm fenhexamid or both",12/12
same,Number of moulded strawberries of 12,"Botrytis cinerea; after 6 through 9 days of incubation, 500 ppm natamycin alone or 500 ppm fenhexamid alone",12
same,Observed antifungal activity O (%),"Botrytis cinerea; 8 days, 250 ppm natamycin, 250 ppm fenhexamid or both",18%
same,Observed antifungal activity O (%),"Botrytis cinerea; 9 days, 250 ppm natamycin, 250 ppm fenhexamid or both",13%
same,Observed antifungal activity O (%),"Botrytis cinerea; 10 days, 250 ppm natamycin, 250 ppm fenhexamid or both",4.8%
same,Observed antifungal activity O (%),"Botrytis cinerea; 10 days, 500 ppm natamycin, 500 ppm fenhexamid or both",2.4%
same,Observed antifungal activity O (%),"Botrytis cinerea; 11 days, 500 ppm natamycin, 500 ppm fenhexamid or both",2.4%
same,Observed antifungal activity O (%),Penicillium italicum; 11 days,69%
same,Observed antifungal activity O (%),Penicillium italicum; 12 days,66%
same,Observed antifungal activity O (%),Penicillium italicum; 13 days,62%
same,Observed antifungal activity O (%),Penicillium italicum; 14 days,51%
same,Observed antifungal activity O (%),Penicillium italicum; 17 days,39%
same,Observed antifungal activity O (%),Penicillium italicum; 18 days,34%
